From patent publication EP3928775A1, “USE OF ANTI[…] FOR TREATING THE COVID-19 DISEASE” (priority 2020, dated 2021)
Read-outs that look alike come from different tables or passages of the source.

What was measured:
Covid-19 = format: in vivo, human
SARS-CoV-2 = details: in-vitro study, reference 11; cited from earlier work
[1] = Patients admitted to the hospital with Covid-19, exposed vs not exposed

## CN(C)CCC[C@@]1(c2ccc(F)cc2)OCc2cc(C#N)ccc21 [Escitalopram]
Covid-19; [1]
  risk of intubation or death (in words): significantly and substantially reduced
SARS-CoV-2
  antiviral effects on SARS-CoV-2: has not be observed

## CNCCC(Oc1ccc(C(F)(F)F)cc1)c1ccccc1 (stereo not drawn) [Fluoxetine]
Covid-19; in vivo
  risk of intubation or death (in words): significantly and substantially reduced
SARS-CoV-2
  antiviral effects on SARS-CoV-2: antiviral effects

## Fc1ccc([C@@H]2CCNC[C@H]2COc2ccc3c(c2)OCO3)cc1 [Paroxetine]
SARS-CoV-2
  antiviral effects on SARS-CoV-2: has not be observed

## COc1ccc(C(CN(C)C)C2(O)CCCCC2)cc1 (stereo not drawn) [Venlafaxine]
Covid-19; [1]
  risk of intubation or death (in words): significantly and substantially reduced
